In patent US20220104493A1, “HERBICIDAL COMPOUNDS” (SYNGENTA CROP PROTECTION AG, priority 2019, published 2022):
Where two headings read alike, the source gives them in different places.

What was measured:
Assay in all cases: Post-emergence efficacy, Method A
Format in all cases: in vivo
Setaria faberi (SETFA) = details: read-out: Control of weed species after post-emergence application, SETFA
Lolium perenne (LOLPE) = details: read-out: Control of weed species after post-emergence application, LOLPE
[1] = test system: Chenopodium album (CHEAL); details: read-out: Control of weed species after post-emergence application, CHEAL
[2] = test system: Euphorbia heterophylla (EPHHL); details: read-out: Control of weed species after post-emergence application, EPHHL
[3] = test system: Ipomoea hederacea (IPOHE); details: read-out: Control of weed species after post-emergence application, IPOHE
[4] = test system: Echinochloa crus-galli (ECHCG); details: read-out: Control of weed species after post-emergence application, ECHCG
Eleusine indica (ELEIN) = details: read-out: Control of weed species after post-emergence application, ELEIN
[5] = test system: Amaranthus palmeri (AMAPA); details: read-out: Control of weed species after post-emergence application, AMAPA
[6] = test system: Digitaria sanguinalis (DIGSA); details: read-out: Control of weed species after post-emergence application, DIGSA
[7] = 500 g/Ha, 100=total damage to plant, 0=no damage, evaluated after 7 and 14 days
[8] = 125 g/Ha, 100=total damage to plant, 0=no damage, evaluated after 7 and 14 days

Structure (SMILES)	pest or weed control at 500 g/ha (Setaria faberi (SETFA); [7]) [%]	pest or weed control at 500 g/ha (Lolium perenne (LOLPE); [7]) [%]	pest or weed control at 500 g/ha [1, 7] [%]	pest or weed control at 500 g/ha [2, 7] [%]	pest or weed control at 500 g/ha [3, 7] [%]	pest or weed control at 500 g/ha [4, 7] [%]	pest or weed control at 500 g/ha (Eleusine indica (ELEIN); [7]) [%]	pest or weed control at 500 g/ha [5, 7] [%]	pest or weed control at 500 g/ha [6, 7] [%]	also measured
O=S(=O)([O-])C[n+]1ccc(-c2ccns2)cc1 [Compound A87]	20	0	10	20	0	20	0	0	0	–
CCOP(C)(=O)C[n+]1ccc(-c2ncns2)cc1 (stereo not drawn) [Compound A47, 5-[1-[[ethoxy(methyl)phosphoryl]methyl]pyridin-1-ium-4-yl]-1,2,4-thiadiazole trifluoromethanesulfonate]	–	–	–	–	–	–	–	–	–	pest or weed control at 500 g/ha (Setaria faberi (SETFA)): 10%; pest or weed control at 500 g/ha (Lolium perenne (LOLPE)): 0%; pest or weed control at 500 g/ha [1]: 60%; pest or weed control at 500 g/ha [2]: 10%; pest or weed control at 500 g/ha [3]: 10%; pest or weed control at 500 g/ha [4]: 10%; pest or weed control at 500 g/ha (Eleusine indica (ELEIN)): 10%; pest or weed control at 500 g/ha [5]: 60%; pest or weed control at 500 g/ha [6]: 10%
O=C(O)CC[n+]1ccc(-c2ncns2)c(Cl)c1 [Compound A56]	30	10	30	100	30	–	–	60	–	–
O=S(=O)([O-])C[n+]1ccc(-c2nc(C(F)(F)F)ns2)cc1 [Compound A85]	100	90	90	100	100	100	100	100	100	–
O=C(O)CC[n+]1ccc(-c2nc(C(F)(F)F)ns2)cc1 [Compound A48, 3-[4-[3-(trifluoromethyl)-1,2,4-thiadiazol-5-yl]pyridin-1-ium-1-yl]propanoic acid acetate]	–	–	–	–	–	–	–	–	–	pest or weed control at 125 g/ha (Setaria faberi (SETFA); [8]): 20%; pest or weed control at 125 g/ha (Lolium perenne (LOLPE); [8]): 10%; pest or weed control at 125 g/ha [1, 8]: 10%; pest or weed control at 125 g/ha [2, 8]: 30%; pest or weed control at 125 g/ha [3, 8]: 0%; pest or weed control at 125 g/ha [4, 8]: 0%; pest or weed control at 125 g/ha (Eleusine indica (ELEIN); [8]): 0%; pest or weed control at 125 g/ha [5, 8]: 90%; pest or weed control at 125 g/ha [6, 8]: 0%
O=C(O)C[n+]1ccc(-c2ccsn2)cc1 [Compound A81]	10	0	40	20	0	10	40	70	10	–
O=S(=O)([O-])CCC[n+]1ccc(-c2cnon2)cc1 [Compound A18]	40	10	50	50	20	50	30	100	30	–
O=S(=O)([O-])C[n+]1ccc(-c2nccs2)cc1 [Compound A84]	10	10	60	50	10	30	50	70	10	–
O=C(O)C[n+]1ccc(-c2cnns2)cc1 [Compound A9, 2-[4-(thiadiazol-5-yl)pyridin-1-ium-1-yl]acetic acid chloride]	0	0	0	10	20	–	–	30	–	–
O=C(O)C[n+]1ccc(-c2nc(C(F)(F)F)cs2)cc1 [Compound A22]	0	0	10	40	0	–	–	10	–	–
Cn1nnc(-c2cc[n+](CS(=O)(=O)[O-])cc2)n1 [Compound A35]	30	–	60	50	40	40	20	70	20	–
CC(C(=O)O)[n+]1ccc(-c2ncns2)cc1 (stereo not drawn) [Compound A28]	80	30	80	20	70	–	–	100	–	–
O=C(O)CC[n+]1ccc(-c2ncns2)c(F)c1 [Compound A55]	20	30	40	10	30	–	–	50	–	–
COC(=O)C[n+]1ccc(-c2cnns2)cc1 [Compound A8, methyl 2-[4-(thiadiazol-5-yl)pyridin-1-ium-1-yl]acetate bromide]	30	0	70	60	10	20	30	–	50	–
CCOC(=O)C[n+]1ccc(-c2nncs2)cc1 [Compound A49]	20	20	50	–	10	10	20	10	50	–
CS(=O)(=O)c1c[n+](CCC(=O)O)ccc1-c1ncns1 [Compound A93, 3-[3-methylsulfonyl-4-(1,2,4-thiadiazol-5-yl)pyridin-1-ium-1-yl]propanoic acid bromide]	30	10	30	30	30	40	30	60	–	–
O=S(=O)([O-])CC[n+]1ccc(-c2nc(C(F)(F)F)cs2)cc1 [Compound A21]	70	20	0	–	10	90	80	70	70	–
O=S(=O)([O-])C[n+]1ccc(-c2csnn2)cc1 [Compound A54]	0	0	20	–	20	0	20	20	10	–
